Reference: ChEMBL document CHEMBL1126409, “Synthesis and biological activity of nor- and homo-5,10-dideazatetrahydrofolic acid” (Bioorg Med Chem Lett, 1992)
pKi: −log10 of the molar value. ≈ marks a conversion by molar mass, not a printed value.

What was measured:
CCRF-CEM = assay: The compound was tested for its cytotoxicity against CCRF-CEM human leukemic cells using 72 hrs assay; assay type: functional, cell-based
[1] = biological target: T1, Trifunctional purine biosynthetic protein adenosine-3 (Mus musculus, UniProt Q64737); assay: Inhibitory activity against glycinamide ribonucleotide formyltransferase (GARFT) from L1210 murine leukemic cells; assay type: cell-based
T1 sequence (Q64737 whole entry): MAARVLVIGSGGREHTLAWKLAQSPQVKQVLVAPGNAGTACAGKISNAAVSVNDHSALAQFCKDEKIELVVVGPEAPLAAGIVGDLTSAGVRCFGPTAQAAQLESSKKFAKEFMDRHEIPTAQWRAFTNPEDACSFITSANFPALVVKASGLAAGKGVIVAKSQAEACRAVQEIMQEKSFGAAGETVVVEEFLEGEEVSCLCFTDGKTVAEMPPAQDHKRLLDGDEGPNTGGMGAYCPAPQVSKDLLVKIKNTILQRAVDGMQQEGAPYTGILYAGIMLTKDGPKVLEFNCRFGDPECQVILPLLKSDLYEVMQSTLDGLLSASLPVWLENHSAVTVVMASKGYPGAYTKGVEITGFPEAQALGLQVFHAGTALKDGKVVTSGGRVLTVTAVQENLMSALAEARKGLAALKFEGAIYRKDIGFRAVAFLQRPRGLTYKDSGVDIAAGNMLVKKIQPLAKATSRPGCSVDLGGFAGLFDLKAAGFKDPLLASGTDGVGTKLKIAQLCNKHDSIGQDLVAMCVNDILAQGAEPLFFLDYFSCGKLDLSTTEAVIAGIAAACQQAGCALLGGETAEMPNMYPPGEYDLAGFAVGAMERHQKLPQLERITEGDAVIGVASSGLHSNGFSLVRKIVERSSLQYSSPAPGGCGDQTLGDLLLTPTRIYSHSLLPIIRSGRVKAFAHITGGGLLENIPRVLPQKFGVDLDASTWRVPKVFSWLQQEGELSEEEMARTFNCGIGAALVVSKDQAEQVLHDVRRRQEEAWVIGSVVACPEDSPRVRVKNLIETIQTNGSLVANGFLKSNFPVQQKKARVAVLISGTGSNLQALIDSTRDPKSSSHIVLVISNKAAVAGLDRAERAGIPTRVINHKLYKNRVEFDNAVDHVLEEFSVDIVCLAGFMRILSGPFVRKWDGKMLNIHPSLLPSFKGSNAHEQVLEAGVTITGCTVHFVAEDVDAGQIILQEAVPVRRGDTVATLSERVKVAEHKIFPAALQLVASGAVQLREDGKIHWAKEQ

| Compound | IC50 (CCRF-CEM) [ng/mL] | pKi [1] |
| --- | --- | --- |
| Nc1nc(O)c2c(n1)NCC(CCCc1ccc(C(=O)N[C@H](CCC(=O)O)C(=O)O)cc1)C2 (stereo not given in full) | 8 (≈ 0.0175 µM) |  |
| Nc1nc(O)c2c(n1)NCC(Cc1ccc(C(=O)N[C@H](CCC(=O)O)C(=O)O)cc1)C2 (stereo not given in full) | 26 (≈ 0.0605 µM) | 12.20 |
| Nc1nc2c(c(=O)[nH]1)C[C@@H](CCc1ccc(C(=O)N[C@@H](CCC(=O)O)C(=O)O)cc1)CN2 [LOMETREXOL] | 7 (≈ 0.0158 µM) | 6.92 |
